Measured values from patent US12714691B2, “Method of treating triple-negative breast cancer” (THE UNITED STATES OF AMERICA, AS REPRESENTED BY THE …, priority 2018, dated 2026).

Tests used:
GDSC cell line panel = GDSC cell line panel drug activity (IC50, Cell Titer Glo measurement of ATP); type: cell-based; conditions: GDSC triple negative breast cancer lines (21); p<7E-10
Method: (§1) To determine reproducibility across institutes and assay types, we tested a selected set of NCI-60-screened compounds for activity in the GDSC cell line panel (Table 1). Drug data reproducibility may be affected by potential sources of data divergence such as assay type and duration for drug treatment. Noting that the GDSC and the NCI/DTP used different assays to determine their IC50 values (Cell Titer Glo measurements of ATP at 72 hours post-treatment versus sulforhodamine B measurement of total protein at 48 hours post-treatment), we compared 19 drugs referenced by their NSCs (National Service Center identifiers) and associated with a range of mechanisms of action types. The drugs with the strongest correlations were oxyphenisatin acetate (Acetalax) (FIG. 5a, R=0.80, p=1.1×10^−10, N=43) and bisacodyl (FIG. 5b, R=0.84, p=9.0×10^−13, N=44). These FDA-approved laxatives lacked pre-existing data in the CTRP, CCLE and GDSC.
In this work, the drugs were assessed in a different institution using a different assay using 1,080 cell lines, including 21 triple negative breast cancers (FIG. 8A, B). […]
DETERMINATION OF PROSPECTIVE TRIPLE NEGATIVE BREAST CANCERS. Transcript expression levels of ERBB2, ESR1, ESR2 and PGR (HER2, estrogen receptor and progesterone receptor) were assessed by GDSC using the Affymetrix Human Genome U219 Array and accessed in CellMinerCDB. […]

NCI-60 cell lines = experiment: NCI-60 compound activity (z score of GI50, sulforhodamine B total protein assay, DTP); type: cell-based; conditions: for Activity (Z score) against breast cancer cell lines: 4 of 5 tested breast cancer cell lines (MCF7, HS578T, BT549, T47D); for Anticancer activity compared with all available (~178) FDA-approved drugs: HS 578T and BT-549 cell lines, FIG. 7B; for Activity (Z score) pattern against NCI-60 cell lines: certain breast cancer, colorectal cancer and ovarian cancer cell lines, FIG. 6; for Activity (Z score) against ovarian cancer cell lines: four of seven ovarian cancer cell lines (OVCAR-3, OVCAR-4, OVCAR-8, NCI-ADR-RES); for Effectiveness compared with 13 approved breast cancer drugs: triple negative breast cancer cell lines HS 578T and BT-549 (two of three NCI-60 TNBC lines), FIG. 7A; for Activity (Z score) against colorectal cell lines: two of seven colorectal cell lines (COLO205 and HCC2998)
Method: as §1
Acetalax and bisacodyl activities against a number of NCI-60 cell lines were obtained.
NCI-60 drug activity, molecular profiling, and annotation data was obtained from CellMiner (Database Version 2.1). […] Detailed information about CellMiner data preparation is publically available for example, in Reinhold, W. C. et al., Cancer Res. 72:3499-3511 (2012), Reinhold, W. C. et al., Cancer Res. 77:601-612 (2017), Abaan, O. D. et al., Cancer Res. 73:4372-4382 (2013), and Varma, S. et al., PloS One 9: e92047 (2014), as well as being documented within CellMiner.
COMPOUND ACTIVITY. Compound activity is indicated as a standardized, ‘z-score’ value derived from measurement of the cell line-specific 50% growth-inhibitory (GIS0) concentration using the sulforhodamine B total protein cytotoxicity assay generated by the Developmental Therapeutics Program (dtp.cancer.gov). In particular, for each compound, the mean and standard deviation of −log 10 [molar GI50] values over the NCI-60 lines are used to center and scale the data.

Compound | Activity compared with the oncology drugs tested (GDSC cell line panel) | Activity (Z score) against breast cancer cell lines (NCI-60 cell lines) | Anticancer activity compared with all available (~178) FDA-approved drugs (NCI-60 cell lines) | Activity (Z score) pattern against NCI-60 cell lines (NCI-60 cell lines) | Activity (Z score) against ovarian cancer cell lines (NCI-60 cell lines) | Effectiveness compared with 13 approved breast cancer drugs (NCI-60 cell lines) | Activity (Z score) against colorectal cell lines (NCI-60 cell lines)
CC(=O)Oc1ccc(C(c2ccc(OC(C)=O)cc2)c2ccccn2)cc1 [Bisacodyl] | more active than any of the oncology drugs | robust activity | superior anticancer activity | strong efficacy | robust activity | more effective | robust activity
CC(=O)Oc1ccc(C2(c3ccc(OC(C)=O)cc3)C(=O)Nc3ccccc32)cc1 [Oxyphenisatin acetate (Acetalax), Oxyphenisatin acetate] | more active than any of the oncology drugs | robust activity | superior anticancer activity | strong efficacy | robust activity | more effective | robust activity
